Assay results as given in PMC4775225, “Bromodomain inhibition of the transcriptional coactivators CBP/EP300 as a therapeutic strategy to target the IRF4 network in multiple myeloma” (eLife, 2016).

Key:
Test in all cases: Viability, resazurin, 6 days
Type in all cases: cell-based
HL60 = conditions: Homo sapiens, HL-60, 144 h, HL60, APL
Experimental: (§1) Cells were plated at 5000–10000 cells per well of 96-well plates containing titrations of the compounds as indicated. After incubation, the cells were incubated with 500 μg/ml resazurin (Sigma) in PBS for 2–8 hr, and fluorescence was measured (Ex 530 nm, Em 590 nm). Cell cycle analysis was performed as described previously ([Mertz et al., 2011]). For visualization, DNA content histograms were generated with GraphPad Prism. Dose-response curves were generated by plotting the normalized percent growth, percent sub-G1 and percent increase in G0/G1 at each dose values. GI50 values were determined as the concentration at which viability was 50% of the DMSO value and calculated by a four-parameter non-linear regression model in GraphPad Prism.

Kasumi-2 = conditions: Homo sapiens, 144 h, Kasumi-2, AML
Experimental: as §1

KMS12PE = conditions: Homo sapiens, KMS-12-PE, 144 h, myeloma
Experimental: as §1

SEM cells = conditions: Homo sapiens, 144 h, ALL
Experimental: as §1

KMS28PE = conditions: Homo sapiens, KMS-28PE, 144 h, myeloma
Experimental: as §1

JJN3 = conditions: Homo sapiens, JJN-3, 144 h, JJN3, myeloma
Experimental: as §1

KMS-11 = conditions: Homo sapiens, 144 h, KMS-11, myeloma
Experimental: as §1

EJM = conditions: Homo sapiens, 144 h, myeloma
Experimental: as §1

MOLM-13 = conditions: Homo sapiens, 144 h, MOLM-13, AML
Experimental: as §1

NOMO-1 = conditions: Homo sapiens, 144 h, NOMO-1, AML
Experimental: as §1

KMS12BM = conditions: Homo sapiens, KMS-12-BM, 144 h, myeloma
Experimental: as §1

KMS20 = conditions: Homo sapiens, KMS-20, 144 h, KMS20, myeloma
Experimental: as §1

380 = conditions: Homo sapiens, 144 h, 380, ALL
Experimental: as §1

SET2 = conditions: Homo sapiens, SET-2, 144 h, SET2 D6, AML
Experimental: as §1

KMS34 = conditions: Homo sapiens, KMS-34, 144 h, KMS34, myeloma
Experimental: as §1

SKNO-1 = conditions: Homo sapiens, 144 h, SKNO-1, AML
Experimental: as §1

KMS27 = conditions: Homo sapiens, KMS-27, 144 h, KMS27, myeloma
Experimental: as §1

SD-1 = conditions: Homo sapiens, 144 h, SD-1, ALL
Experimental: as §1

OCI-AML-5 = conditions: Homo sapiens, 144 h, OCI-AML-5, AML
Experimental: as §1

Molt-16 = conditions: Homo sapiens, 144 h, Molt-16, ALL
Experimental: as §1

MN-60 = conditions: Homo sapiens, 144 h, MN-60, ALL
Experimental: as §1

MV411 = conditions: Homo sapiens, MV4-11, 144 h, MV411, AML
Experimental: as §1

NB4 = conditions: Homo sapiens, NB-4, 144 h, NB4, APL
Experimental: as §1

OCI-AML-2 = conditions: Homo sapiens, OCI-AML2, 144 h, OCI-AML-2, AML
Experimental: as §1

SKM-1 = conditions: Homo sapiens, 144 h, SKM-1, AML
Experimental: as §1

THP-1 = conditions: Homo sapiens, 144 h, THP-1, AML
Experimental: as §1

VAL = conditions: Homo sapiens, 144 h, ALL
Experimental: as §1

REH = conditions: Homo sapiens, 144 h, ALL
Experimental: as §1

ML2 = conditions: Homo sapiens, ML-2, 144 h, ML2, AML
Experimental: as §1

Kasumi-1 = conditions: Homo sapiens, 144 h, Kasumi-1, AML
Experimental: as §1

KOPN-8 = conditions: Homo sapiens, 144 h, KOPN-8, ALL
Experimental: as §1

Tanoue = conditions: Homo sapiens, 144 h, ALL
Experimental: as §1

K562 = conditions: Homo sapiens, 144 h, K562, CML
Experimental: as §1

Jurkat = conditions: Homo sapiens, 144 h, ALL
Experimental: as §1

KMS21BM = conditions: Homo sapiens, KMS-21BM, 144 h, myeloma
Experimental: as §1

PL21 = conditions: Homo sapiens, PL-21, 144 h, PL21, APL
Experimental: as §1

ROS 50 = conditions: Homo sapiens, 144 h, ROS 50, ALL
Experimental: as §1

KMS26 = conditions: Homo sapiens, KMS-26, 144 h, KMS26, myeloma
Experimental: as §1

U266 = conditions: Homo sapiens, U-266, 144 h, U266, myeloma
Experimental: as §1

Row | SMILES | GI50 (HL60) [µM] | GI50 (Kasumi-2) [µM] | GI50 (KMS12PE) [µM] | GI50 (SEM cells) [µM] | GI50 (KMS28PE) [µM] | GI50 (JJN3) [µM] | GI50 (KMS-11) [µM] | GI50 (EJM) [µM] | GI50 (MOLM-13) [µM] | GI50 (NOMO-1) [µM] | GI50 (KMS12BM) [µM] | GI50 (KMS20) [µM] | GI50 380 [µM] | GI50 (SET2) [µM] | GI50 (KMS34) [µM] | GI50 (SKNO-1) [µM] | GI50 (KMS27) [µM] | GI50 (SD-1) [µM] | GI50 (OCI-AML-5) [µM] | GI50 (Molt-16) [µM] | other results
1 | CCC(=O)N1CCOc2c(cc(-c3ccc(OC)c(OC)c3)cc2OC[C@H]2CCCN(C)C2)C1 [I-CBP112] | 4.55 | 8.12 | 12.8 | 5.34 | > 20 | 11.2 | 16.3 | 14.6 | 15.7 | 8.7 | 2.36 | 2.97 | > 20 | 12.6 | 2.53 | 9.5 | > 20 | 13.5 | > 20 | 17.6 | GI50 (MN-60): > 20 µM; GI50 (MV411): 13.1 µM; GI50 (NB4): 17.8 µM; GI50 (OCI-AML-2): 9.7 µM; GI50 (SKM-1): 15.9 µM; GI50 (THP-1): 5.35 µM; GI50 (VAL): 14.2 µM; GI50 (REH): > 20 µM; GI50 (ML2): > 20 µM; GI50 (Kasumi-1): 3.22 µM; GI50 (KOPN-8): 18.5 µM; GI50 (Tanoue): > 20 µM; GI50 (K562): > 20 µM; GI50 (Jurkat): > 20 µM; GI50 (KMS21BM): 3.26 µM; GI50 (PL21): > 20 µM; GI50 (ROS 50): > 20 µM; GI50 (KMS26): 2.3 µM; GI50 (U266): 7.61 µM
2 | COc1ccc(CCc2nc3cc(-c4c(C)noc4C)ccc3n2C[C@H](C)N2CCOCC2)cc1Cl [SGC-CBP30] | 4.01 | 3.77 | 5.34 | 2.83 | 17.9 | 2.53 | 2.41 | 3.87 | 6.93 | 7.4 | 1.3 | 1.05 | 15.6 | 4.47 | 1.3 | 4.8 | 11.8 | 7.28 | > 20 | 7.98 | GI50 (MN-60): 12.3 µM; GI50 (MV411): 3.33 µM; GI50 (NB4): 3.93 µM; GI50 (OCI-AML-2): 3.68 µM; GI50 (SKM-1): 6.61 µM; GI50 (THP-1): 2.85 µM; GI50 (VAL): 7.54 µM; GI50 (REH): 18.5 µM; GI50 (ML2): 6.65 µM; GI50 (Kasumi-1): 1.95 µM; GI50 (KOPN-8): 7.23 µM; GI50 (Tanoue): 8.88 µM; GI50 (K562): 8.86 µM; GI50 (Jurkat): 12 µM; GI50 (KMS21BM): 1.27 µM; GI50 (PL21): 17 µM; GI50 (ROS 50): 16.4 µM; GI50 (KMS26): 1.34 µM; GI50 (U266): 2.63 µM
